Measurements reported in paper PMC5061557 (Structure (London, England : 1993), 2016).

B1: E. coli L199Q HslU mutant with an N-terminal H6 tag (enzyme, UniProt P0A6H5 1-443, looked up)
chain: MSEMTPREIVSELDKHIIGQDNAKRSVAIALRNRWRRMQLNEELRHEVTPKNILMIGPTGVGKTEIARRLAKLANAPFIKVEATKFTEVGYVGKEVDSIIRDLTDAAVKMVRVQAIEKNRYRAEELAEERILDVLIPPAKNNWGQTEQQQEPSAARQAFRKKLREGQLDDKEIEIDLAAAPMGVEIMAPPGMEEMTSQQQSMFQNLGGQKQKARKLKIKDAMKLLIEEEAAKLVNPEELKQDAIDAVEQHGIVFIDEIDKICKRGESSGPDVSREGVQRDLLPLVEGCTVSTKHGMVKTDHILFIASGAFQIAKPSDLIPELQGRLPIRVELQALTTSDFERILTEPNASITVQYKALMATEGVNIEFTDSGIKRIAEAAWQVNESTENIGARRLHTVLERLMEEISYDASDLSGQNITIDADYVSKHLDALVADEDLSRFIL

What was measured:
WTHslU = WTHslU (Escherichia coli, UniProt P0A6H5); assay: NADH-coupled ATPase assay; format: biochemical; settings: 5 mM ATP, pH 7.5, 20 mM MgCl2, 37 °C, without HslV
Sequence of WTHslU (P0A6H5 whole entry): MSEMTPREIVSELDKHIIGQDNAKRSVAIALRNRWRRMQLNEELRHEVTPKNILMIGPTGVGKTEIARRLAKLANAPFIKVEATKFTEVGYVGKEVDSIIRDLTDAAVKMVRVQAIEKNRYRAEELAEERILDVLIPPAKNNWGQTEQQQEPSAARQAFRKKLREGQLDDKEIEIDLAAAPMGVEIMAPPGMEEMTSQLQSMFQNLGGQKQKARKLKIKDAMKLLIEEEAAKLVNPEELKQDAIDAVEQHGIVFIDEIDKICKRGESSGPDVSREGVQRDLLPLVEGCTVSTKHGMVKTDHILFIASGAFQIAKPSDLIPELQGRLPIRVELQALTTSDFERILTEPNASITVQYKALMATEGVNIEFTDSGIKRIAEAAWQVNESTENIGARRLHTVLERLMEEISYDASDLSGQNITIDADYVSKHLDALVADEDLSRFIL

crystal structure = target: the molecule itself; assay: crystal structure

Molecule	NADH-coupled ATPase assay (WTHslU)	stoichiometry N (crystal structure)
Nc1ncnc2c1ncn2[C@@H]1O[C@H](COP(=O)(O)OP(=O)(O)OP(=O)(O)O)[C@@H](O)[C@H]1O [ATP]	assayed rates of ATP hydrolysis for this enzyme and wild type	
B1		6
